Measurements published in ChEMBL document CHEMBL1201862, “PubChem BioAssay data set” (2004).
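Grown in 96-well plates, cells were treated for 48 hours with each compound at five concentrations. Insufficient inhibition: endpoint recorded as highest concentration tested. GI50: concentration for 50% inhibition of growth.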 The source made the active and inactive calls. Rule as the data show it: active = GI50 up to about 1.1 µM and inactive = higher.

Columns and labels:
Experiment in all cases: DTP human tumour cell line panel, 48 h
[1] = test system: U-251
[2] = test system: SR
[3] = test system: HOP-62
[4] = test system: CAKI-1
[5] = test system: OVCAR-4
[6] = test system: OVCAR-5
[7] = test system: T47D
[8] = test system: HCT-116
[9] = test system: A498
[10] = test system: SNB-75
[11] = test system: UACC-257
[12] = test system: IGROV-1
[13] = test system: NCI-H23
[14] = test system: CCRF-CEM
[15] = test system: SNB-19
[16] = test system: NCI/ADR-RES
[17] = test system: OVCAR-3
[18] = test system: SF-539
[19] = test system: SK-OV-3
[20] = test system: Malme-3M

Measured: GI50

O=S(=O)(O)c1cc(Cl)c(O)c2ncc(Cl)cc12
inactive: [1] > 100 µM | [2] 32.2 µM | [3] > 100 µM | [4] > 100 µM | [5] 42.7 µM | [6] > 100 µM | [7] > 100 µM | [8] 36.5 µM | [9] > 100 µM | [10] > 100 µM | [11] > 100 µM | [12] 35.4 µM | [13] 72.4 µM | [14] 24.6 µM | [15] 84.7 µM | [16] 32.8 µM | [17] 69.2 µM | [18] 50.4 µM

O=C(O)C1C2CCC(C2)C1c1ccccc1 (stereo not given)
inactive: [1] > 100 µM | [2] > 100 µM | [3] > 100 µM | [19] > 100 µM | [4] > 100 µM | [20] > 100 µM | [6] > 100 µM | [7] > 100 µM | [8] > 100 µM | [9] > 100 µM | [10] > 100 µM | [11] > 100 µM | [13] > 100 µM | [14] > 100 µM | [15] > 100 µM | [16] > 100 µM | [17] > 100 µM | [18] > 100 µM

CCOC(=O)C1C(c2ccc(OC)cc2)c2c(nn(-c3ccccc3)c2O)CC1(O)OCC (stereo not given)
inactive: [1] > 100 µM | [2] 2.17 µM | [3] > 100 µM | [4] > 100 µM | [5] > 100 µM | [20] 75.5 µM | [6] > 100 µM | [7] 12.8 µM | [8] 23.7 µM | [9] > 100 µM | [10] 82.4 µM | [11] 44.6 µM | [12] > 100 µM | [13] > 100 µM | [15] 10 µM | [16] > 100 µM | [17] > 100 µM | [18] > 100 µM

NC(=O)NNc1nc(-c2ccccc2)cs1
inactive: [1] > 100 µM | [2] > 100 µM | [3] > 100 µM | [19] > 100 µM | [4] > 100 µM | [5] > 100 µM | [20] > 100 µM | [6] > 100 µM | [7] > 100 µM | [8] > 100 µM | [9] > 100 µM | [10] > 100 µM | [11] > 100 µM | [12] > 100 µM | [14] 47 µM | [15] > 100 µM | [16] > 100 µM | [17] > 100 µM

O=C(/C=C/c1ccsc1)c1ccco1
inactive: [1] 7.67 µM | [2] 2.28 µM | [3] 14.9 µM | [19] 18.5 µM | [4] 6.85 µM | [5] 5.24 µM | [6] 17.1 µM | [7] 11.8 µM | [8] 5.97 µM | [9] 5.41 µM | [10] 12.8 µM | [11] 17.3 µM | [12] 10.4 µM | [13] 14.2 µM | [14] 5.86 µM | [15] 15.5 µM | [16] 16.6 µM | [17] 14 µM | [18] 14.4 µM

O=c1[nH]c(Cc2ccccc2)nc2c1sc1nc3ccccc3n12
inactive: [1] > 100 µM | [2] > 100 µM | [19] > 100 µM | [4] > 100 µM | [6] > 100 µM | [7] 60.5 µM | [8] > 100 µM | [9] > 100 µM | [10] > 100 µM | [11] > 100 µM | [12] > 100 µM | [13] > 100 µM | [14] > 100 µM | [15] > 58.3 µM | [16] > 100 µM | [17] > 100 µM | [18] > 100 µM

COc1ccc(N)c(C(=O)CCNC(C)=O)c1 [KINURENAMINE]
inactive: [1] > 100 µM | [2] > 100 µM | [19] > 100 µM | [4] > 100 µM | [5] > 100 µM | [6] > 100 µM | [7] > 100 µM | [8] > 100 µM | [9] > 100 µM | [10] > 100 µM | [11] > 100 µM | [12] > 100 µM | [13] > 100 µM | [14] > 100 µM | [15] > 100 µM | [16] > 100 µM | [17] > 100 µM | [18] > 100 µM

CCN(CC)CCCNc1nnc(C)c2[nH]c3ccccc3c12
inactive: [1] 13.4 µM | [2] 7.13 µM | [3] 7.31 µM | [19] 11 µM | [4] > 100 µM | [20] 15.1 µM | [6] 19.6 µM | [7] 12.7 µM | [8] 5.36 µM | [9] 17.2 µM | [10] 18.3 µM | [11] 15.1 µM | [12] 12.1 µM | [13] 15.5 µM | [14] 4.42 µM | [15] 19.3 µM | [16] > 100 µM | [17] 11.7 µM | [18] 2.28 µM

CC1OC(O[C@H]2CC[C@]3(C)[C@H]4CC=C5[C@@H]6[C@@H](C)[C@H](C)CC[C@]6(C(=O)O)CC[C@@]5(C(=O)O)[C@]4(C)CC[C@H]3C2(C)C)C(O)C(O)C1O (stereo not given in full)
inactive: [1] > 75 µM | [2] > 75 µM | [3] > 75 µM | [19] > 75 µM | [4] > 75 µM | [5] > 75 µM | [6] > 75 µM | [7] > 75 µM | [8] > 75 µM | [9] > 75 µM | [10] > 75 µM | [11] > 75 µM | [13] > 75 µM | [14] 28.8 µM | [15] > 75 µM | [16] > 75 µM | [17] > 75 µM | [18] > 75 µM

COC(=O)c1cc(C#N)[nH]c1-c1ccc(C)s1
inactive: [1] 95.5 µM | [2] 63 µM | [3] 33 µM | [19] 55.5 µM | [4] 41.9 µM | [5] 76.2 µM | [6] 47.5 µM | [7] 25.6 µM | [8] > 100 µM | [9] 26.9 µM | [10] 25.3 µM | [11] 64.7 µM | [13] 34 µM | [14] 53 µM | [15] > 100 µM | [16] 31.1 µM | [17] 26.9 µM | [18] > 100 µM

Cc1c([N+](=O)[O-])oc2ccc3ccccc3c12
inactive: [1] 65.6 µM | [2] 2.9 µM | [3] > 100 µM | [19] 20.8 µM | [4] 11.9 µM | [5] 47.5 µM | [6] > 100 µM | [7] 61.1 µM | [8] 4.26 µM | [9] 22.8 µM | [10] 28.5 µM | [11] 78 µM | [12] 12.1 µM | [13] 11.2 µM | [14] 6.32 µM | [15] > 100 µM | [16] 33.4 µM | [17] > 100 µM | [18] 28.2 µM
